Laboratory results as given in PMC7914897, “Cytotoxic Potential of a-Azepano- and 3-Amino-3,4-SeCo-Triterpenoids” (International Journal of Molecular Sciences, 2021).
Like-named read-outs stand apart in the source and are kept apart here.

Legend:
[1] = tested on: NCI-H226 (NSC lung cancer); assay: NCI-60 screen (SRB, 48 h); conditions: Homo sapiens
[2] = tested on: panel of approximately 60 cancer cell lines; assay: NCI-60 screen (SRB, 48 h), full panel
[3] = tested on: Renal Cancer subpanel; assay: NCI-60 screen, subpanel; conditions: Homo sapiens
[4] = tested on: A549/ATCC (NSC lung cancer); assay: NCI-60 screen (SRB, 48 h); conditions: Homo sapiens
[5] = tested on: SK-MEL-5 (Melanoma); assay: NCI-60 screen (SRB, 48 h); conditions: Homo sapiens
[6] = tested on: SF-268 (CNS cancer); assay: NCI-60 screen (SRB, 48 h); conditions: Homo sapiens
[7] = tested on: IGROV1 (Ovarian cancer); assay: NCI-60 screen (SRB, 48 h); conditions: Homo sapiens
[8] = tested on: NCI-H23 (NSC lung cancer); assay: NCI-60 screen (SRB, 48 h); conditions: Homo sapiens
[9] = tested on: CAKI-1 (Renal cancer); assay: NCI-60 screen (SRB, 48 h)
[10] = tested on: OVCAR-3 (Ovarian cancer); assay: cells; conditions: Homo sapiens
[11] = tested on: TK-10 (Renal cancer); assay: NCI-60 screen (SRB, 48 h); conditions: Homo sapiens
[12] = tested on: HOP-62 (NSC lung cancer); assay: NCI-60 screen (SRB, 48 h); conditions: Homo sapiens
[13] = tested on: COLO 205 (Colon cancer); assay: NCI-60 screen (SRB, 48 h); conditions: Homo sapiens
[14] = tested on: HS 578T (Breast cancer); assay: NCI-60 screen (SRB, 48 h); conditions: Homo sapiens
[15] = tested on: Leukemia subpanel; assay: cells; conditions: Homo sapiens
[16] = tested on: HCC-2998 (Colon cancer); assay: NCI-60 screen (SRB, 48 h); conditions: Homo sapiens
[17] = tested on: OVCAR-5 (Ovarian cancer); assay: NCI-60 screen (SRB, 48 h)
[18] = tested on: SNB-19 (CNS cancer); assay: NCI-60 screen (SRB, 48 h); conditions: Homo sapiens
[19] = tested on: HCT-15 (Colon cancer); assay: NCI-60 screen (SRB, 48 h); conditions: Homo sapiens
[20] = tested on: PC-3 (Prostate cancer); assay: NCI-60 screen (SRB, 48 h); conditions: Homo sapiens
[21] = tested on: UACC-62 (Melanoma); assay: NCI-60 screen (SRB, 48 h); conditions: Homo sapiens
[22] = tested on: NCI-H322M (NSC lung cancer); assay: NCI-60 screen (SRB, 48 h)
[23] = tested on: UACC-257 (Melanoma); assay: NCI-60 screen (SRB, 48 h); conditions: Homo sapiens
[24] = tested on: NCI-H522 (NSC lung cancer); assay: NCI-60 screen (SRB, 48 h); conditions: Homo sapiens
[25] = tested on: OVCAR-8 (Ovarian cancer); assay: NCI-60 screen (SRB, 48 h); conditions: Homo sapiens
[26] = tested on: DU-145 (Prostate cancer); assay: NCI-60 screen (SRB, 48 h); conditions: Homo sapiens
[27] = tested on: MDA-MB-31/ATCC (Breast cancer); assay: NCI-60 screen (SRB, 48 h); conditions: Homo sapiens

## CC1(C)NCCC[C@]2(C)[C@H]3C=CC4=C5C[C@@](C)(CO)CC[C@]5(C)CC[C@@]4(C)[C@]3(C)CC[C@@H]12 [Compound 6, azepano-glycyrrhetol-diene]
[1]; NCI-H226
  GI50: 4 µM
[1]; NCI-H226, 48 h, read-out: TGI
  IC (TGI): 16.9 µM
[1]; NCI-H226, read-out: LC50
  CC50: 82.2 µM
[2]; 1 dose 10 µM
  Positive Cytotoxic Effect (cell lines with percent growth < 0 / total): 59/59
  number of cancer cell lines the compound was active against: pronounced antiproliferative effect against the whole NCI-60 cancer cell line panel
[2]; Homo sapiens, 48 h, read-out: Mean Growth, %
  activity at 10 µM: -77.2%
[2]; Homo sapiens, 48 h, read-out: Range of Growth, %
  activity at 10 µM: -99.7 to -5.08%
[2]; Homo sapiens, 48 h, read-out: TGI MG_MID60, average over all cell lines
  IC (TGI): 13.2 µM
[2]; Homo sapiens, read-out: GI50 MG_MID60
  GI50: 4.21 µM
[2]; Homo sapiens, read-out: GI50 against all human tumor cell lines
  GI50: < 15 µM
[2]; Homo sapiens, read-out: LC50 MG_MID60, average over all cell lines
  CC50: 41.9 µM
[3]; 48 h, read-out: TGI MG_MID
  IC (TGI): 11.9 µM
[3]; read-out: GI50 MG_MID
  GI50: 4.01 µM
[3]; read-out: LC50 MG_MID
  CC50: 35.8 µM
[4]; A549
  GI50: 1.89 µM
[4]; A549, 48 h, read-out: TGI
  IC (TGI): 3.71 µM
[4]; A549, read-out: LC50
  CC50: 7.31 µM
[5]; SK-MEL-5
  GI50: 2.14 µM
[5]; SK-MEL-5, 48 h, read-out: TGI
  IC (TGI): 4.94 µM
[5]; SK-MEL-5, read-out: LC50
  CC50: 14 µM
[6]; SF-268
  GI50: 3.27 µM
[6]; SF-268, 48 h, read-out: TGI
  IC (TGI): 11.6 µM
[6]; SF-268, read-out: LC50
  CC50: 49.6 µM
[7]; IGROV-1
  GI50: 4.08 µM
[7]; IGROV-1, 48 h, read-out: TGI
  IC (TGI): 14.8 µM
[7]; IGROV-1, read-out: LC50
  CC50: 46.6 µM
[8]; NCI-H23
  GI50: 3.15 µM
[8]; NCI-H23, 48 h, read-out: TGI
  IC (TGI): 12.5 µM
[8]; NCI-H23, read-out: LC50
  CC50: 40 µM
[9]; CAKI-1, 1 dose 10 µM
  Growth % of the Most Sensitive Cell Lines: −96.49%
[9]; Homo sapiens, CAKI-1
  GI50: 3.7 µM
[9]; Homo sapiens, CAKI-1, 48 h, read-out: TGI
  IC (TGI): 13.8 µM
[9]; Homo sapiens, CAKI-1, read-out: LC50
  CC50: 39.3 µM
[10]; OVCAR-3
  GI50: 2.69 µM
[10]; OVCAR-3, 48 h, read-out: TGI
  IC (TGI): 7.06 µM
[10]; OVCAR-3, read-out: LC50
  CC50: 34.8 µM
[11]; TK-10
  GI50: 2.66 µM
[11]; TK-10, 48 h, read-out: TGI
  IC (TGI): 7.15 µM
[11]; TK-10, read-out: LC50
  CC50: 27.3 µM
[12]; HOP-62
  GI50: 2.3 µM
[12]; HOP-62, 48 h, read-out: TGI
  IC (TGI): 5.16 µM
[12]; HOP-62, read-out: LC50
  CC50: 16.7 µM
[13]; COLO 205
  GI50: 3.63 µM
[13]; COLO 205, 48 h, read-out: TGI
  IC (TGI): 13.9 µM
[13]; COLO 205, read-out: LC50
  CC50: 43 µM
[14]
  GI50: 3.2 µM
[14]; 48 h, read-out: TGI
  IC (TGI): 13.2 µM
[14]; read-out: LC50
  CC50: 71.2 µM
[15]; 48 h, read-out: TGI MG_MID
  IC (TGI): 10.2 µM
[15]; read-out: GI50 MG_MID
  GI50: 3.02 µM
[15]; read-out: LC50 MG_MID
  CC50: 55.5 µM
[16]; HCC 2998
  GI50: 10.1 µM
[16]; HCC 2998, 48 h, read-out: TGI
  IC (TGI): 23 µM
[16]; HCC 2998, read-out: LC50
  CC50: 52.3 µM
[17]; Homo sapiens, OVCAR-5
  GI50: 1.24 µM
[17]; Homo sapiens, OVCAR-5, 48 h, read-out: TGI
  IC (TGI): 25.3 µM
[17]; Homo sapiens, OVCAR-5, read-out: LC50
  CC50: 51.6 µM
[17]; OVCAR-5, 1 dose 10 µM
  Growth % of the Most Sensitive Cell Lines: −98.74%
[18]; SNB-19
  GI50: 11.6 µM
[18]; SNB-19, 48 h, read-out: TGI
  IC (TGI): 25.3 µM
[18]; SNB-19, read-out: LC50
  CC50: 55.2 µM
[19]; HCT-15
  GI50: 4.21 µM
[19]; HCT-15, 48 h, read-out: TGI
  IC (TGI): 16.4 µM
[19]; HCT-15, read-out: LC50
  CC50: 45.4 µM
[20]; PC-3
  GI50: 3.05 µM
[20]; PC-3, 48 h, read-out: TGI
  IC (TGI): 12.3 µM
[20]; PC-3, read-out: LC50
  CC50: 38.7 µM
[21]; UACC-62
  GI50: 3.13 µM
[21]; UACC-62, 48 h, read-out: TGI
  IC (TGI): 10.9 µM
[21]; UACC-62, read-out: LC50
  CC50: 37 µM
[22]; 1 dose 10 µM
  Growth % of the Most Sensitive Cell Lines: −99.73%
[22]; Homo sapiens
  GI50: 4.78 µM
[22]; Homo sapiens, 48 h, read-out: TGI
  IC (TGI): 16.9 µM
[22]; Homo sapiens, read-out: LC50
  CC50: 42.1 µM
[23]; UACC-257
  GI50: 5.24 µM
[23]; UACC-257, 48 h, read-out: TGI
  IC (TGI): 17 µM
[23]; UACC-257, read-out: LC50
  CC50: 43.8 µM
[24]; NCI-H522
  GI50: 2.38 µM
[24]; NCI-H522, 48 h, read-out: TGI
  IC (TGI): 7.31 µM
[24]; NCI-H522, read-out: LC50
  CC50: 31.7 µM
[25]; OVCAR-8
  GI50: 2.55 µM
[25]; OVCAR-8, 48 h, read-out: TGI
  IC (TGI): 6.66 µM
[25]; OVCAR-8, read-out: LC50
  CC50: 30.8 µM
[26]; DU-145
  GI50: 2.25 µM
[26]; DU-145, 48 h, read-out: TGI
  IC (TGI): 5.02 µM
[26]; DU-145, read-out: LC50
  CC50: 13.8 µM
[27]
  GI50: 14.5 µM
[27]; 48 h, read-out: TGI
  IC (TGI): 29.3 µM
[27]; read-out: LC50
  CC50: 59.2 µM
